Results from publication PMC9181899, “Synthesis and Anticancer Properties of New 3-Methylidene-1-sulfonyl-2,3-dihydroquinolin-4(1H)-ones” (Molecules, 2022).
Read-outs that look alike come from different tables or passages of the source.

Tests used:
HL-60 cells [1] = test: Apoptosis by cleaved PARP (Asp214) staining, flow cytometry; format: cell-based; conditions: 1.8 µM, 24 h, Figure 3b
Experimental: (§1) To evaluate the anticancer potential of 5a, the ability of this compound to inhibit cell proliferation, induce apoptotic cell death, and generate DNA damage was examined by flow cytometry using the ‘Apoptosis, DNA Damage, and Cell Proliferation Kit’ (BD Bioscience). After 24 h treatment with 5a in increasing concentrations, HL-60 cells were exposed to bromodeoxyuridine (BrdU) for additional 8 h. Then, the cells were simultaneously stained with fluorochrome-labeled anti-BrdU, anti-cleaved PARP (Asp214) and anti-H2AX (pS139).
To check whether the cytotoxic effect of 5a was associated with the induction of apoptosis, the pro-apoptotic activity of this compound was investigated. Apoptosis regulation is triggered by the activation of caspases. Caspase-3, an effector caspase, cleaves a number of vital proteins, leading to cell death. The activity of caspase-3 was assessed by flow cytometry using fluorochrome-labeled antibodies recognizing 89 kDa-cleaved PARP fragments released from PARP by caspase-3 in the executive stage of apoptosis.
(§2) Cell proliferation, DNA damage, and apoptotic cell death were determined using Apoptosis, DNA Damage, and Cell Proliferation Kit (BD Bioscience, San Jose, CA, USA), according to the manufacturer protocol. Briefly, HL-60 cells were seeded in 6-well plates (4.0 × 10^5 cells/mL) in 2 mL of growth medium and treated with 5a for 24 h. Afterwards, the bromodeoxyuridine (BrdU, 10 µM) was added and the cells were incubated for additional 8 h. Next, the cells were collected by centrifugation (300× g, 5 min), counted, fixed, and permeabilized according to the manufacturer’s instructions. The cells were incubated with DNase (300 µg/mL in PBS) for 1 h at 37 °C and then simultaneously stained with fluorochrome-labeled anti-BrdU, H2AX (pS139), and cleaved PARP (Asp214) antibodies, for 20 min at room temperature. After washing, DNA staining with DAPI (1 µg/mL of the staining buffer) was performed, and the cells were analyzed by flow cytometry using CytoFLEX (Beckman Coulter, Inc., Brea, CA, USA).

HL-60 cells [2] = test: Cell proliferation by BrdU incorporation, flow cytometry; format: cell-based; conditions: 1.8 µM
Experimental: as §1
BrdU is an analog of thymidine, and its incorporation into DNA was used as an index of cell proliferation. […] At 1.8 µM concentration, this analog caused a 2.2-fold decrease in BrdU incorporation (Figure 4a).
as §2, with “Afterwards, the bromodeoxyuridine (BrdU, 10 µM) was added and the cells were incubated for additional 8 h.” left out, “The cells were incubated with DNase (300 µg/mL in PBS) for 1 h at 37 °C and then simultaneously stained with fluorochrome-labeled anti-BrdU, H2AX (pS139), and cleaved PARP (Asp214) antibodies, for 20 min at room temperature.” left out

HL-60 cells [3] = test: MTT in vitro cytotoxicity assay, HL-60; format: cell-based; conditions: Homo sapiens
Experimental: (§3) The promyelocytic leukemia HL-60 and breast cancer adenocarcinoma MCF-7 cell lines were purchased from the European Collection of Cell Cultures (ECACC). Leukemia cells were cultured in RPMI 1640 plus GlutaMax I medium (Gibco/Life Technologies, Carlsbad, CA, USA). MCF-7 cells were maintained in Minimum Essential Medium Eagle (Sigma Aldrich, St. Louis, MO, USA) and supplemented with 2 mM glutamine and men non-essential amino acid solution (Sigma Aldrich, St. Louis, MO, USA). Both media were supplemented with 10% heat-inactivated fetal bovine serum (Biological Industries, Beit-Haemek, Israel) and antibiotics (100 U/mL penicillin and 100 μg/mL streptomycin) (Sigma-Aldrich, St. Louis, MO, USA). Human umbilical vein endothelial cells (HUVECs) were purchased from the American Type Culture Collection (ATCC). Cells were cultured using EGM-2 Endothelial Medium BulletKit purchased from Lonza (Lonza, Walkersville, MD, USA). Cells were maintained at 37 °C in 5% CO2 atmosphere and grown until 80% confluent.
(§4) The tested compounds were dissolved in sterile dimethyl sulfoxide (DMSO) and further diluted with culture medium. The final concentration of DMSO in cell cultures was less than 0.1% v/v. Controls without and with 0.1% DMSO were performed in each experiment. At the used concentration, DMSO had no effect on the observed parameters.
(§5) The MTT (3-(4,5-dimethylthiazol-2-yl)-2,5-diphenyltetrazolium bromide) assay, which measures the activity of cellular dehydrogenases, was performed according to the Mosmann method. Exponentially growing cells were seeded into 24-well plates at a density of 8 × 10^4 cells/mL and left to grow for 24 h. After 24 h or 48 h of incubation with various concentrations of the tested compounds (dissolved in DMSO and diluted with complete culture medium), cells were incubated with 0.1 mL of MTT solution (5 mg/mL in phosphate buffered saline) for 1.5 h. The metabolically active cells reduced MTT to blue formazan crystals. The plates were centrifuged, and the supernatant was discarded. DMSO (1 mL) was added to each well to dissolve the crystals, whose absorbance was measured at 560 nm using FlexStation 3 Multi-Mode Microplate Reader (Molecular Devices, LLC, San Jose, CA, USA). The untreated cells were used as control. The IC50 values were calculated from the concentration–response curves. The data were expressed as mean ± SEM of three independent experiments.

HUVEC cells = test: MTT in vitro cytotoxicity assay, HUVEC (normal cells); format: cell-based, human; conditions: Homo sapiens, HUVEC, 48 h incubation, mean ± SEM
Experimental: as §3, §4, §5

HL-60 cells [4] = test: Apoptosis by FITC-Annexin V and PI double-staining, flow cytometry; format: cell-based; conditions: 1.8 µM, 24 h
Experimental: Pro-apoptotic activity of 5a was also confirmed using FITC-Annexin V and PI double-staining, based on the loss of plasma membrane asymmetry (phosphatidylserine externalization), which is a marker of the earlier stages of apoptosis.
Apoptotic cell death was determined using FITC-Annexin V Apoptosis Detection Kit I (BD Bioscience, San Jose, CA, USA). Briefly, HL-60 cells were seeded in the 6-well plates (4.0 × 10^5 cells/well) in 2 mL of the culture medium and treated with […] for 24 h. Afterwards, the cells were collected by centrifugation (300× g, 5 min), washed with PBS, re-suspended in binding buffer and stained with FITC-conjugated annexin V and propidium iodide (PI) according to the manufacturer guidelines (15 min, at room temperature). The samples were analyzed by flow cytometry using CytoFLEX (Beckman Coulter, Inc., Brea, CA, USA). Data analysis was performed using Kaluza Analysis Software v2 (Beckman Coulter, Inc., Brea, CA, USA).

Compound: C=C1C(=O)c2ccccc2N(S(=O)(=O)c2ccccc2)C1CC (stereo not drawn) [Compound 5a, 2-Ethyl-3-methylidene-1-(phenylsulfonyl)-2,3-dihydroquinolin-4(1H)-one]
- Q3: H2AX (pS139) and cleaved PARP negative cells (representative plot) (HL-60 cells [1]): 66.8%
- Q4: cleaved PARP positive, H2AX (pS139) negative cells (representative plot) (HL-60 cells [1]): 15.0%
- BrdU positive cells (representative plot) (HL-60 cells [2]; 24 h, Figure 3a): 17.5%
- decrease in BrdU incorporation (HL-60 cells [2]; 24 h treatment then BrdU 8 h, vs control): 2.2 fold
- IC50 (HL-60 cells [3]; HL-60, 24 h, 24 h incubation, read-out: IC50 HL-60 after 24 h incubation): 910 ± 30 nM
- IC50 (HL-60 cells [3]; HL-60, 48 h, 48 h incubation, mean ± SEM, read-out: IC50 HL-60): 340 ± 30 nM
- IC50 (HUVEC cells): 1870 ± 20 nM
- early apoptotic cell fraction (Annexin V-positive) (HL-60 cells [4]): up to 13.9%
- late apoptotic cell fraction (Annexin V- and PI-positive) (HL-60 cells [4]): ≤ 13.7%
